In PubChem BioAssay (NCI):
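The compound was tested at five concentrations on cells cultured in 96-well plates, with a 48-hour exposure period. Definition used: TGI = concentration required for complete inhibition of growth.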

Tests used:
Assay in all cases: inhibition of tumour cell growth, NCI panel, 48 h
ACHN renal = system: ACHN renal
BT-549 breast = system: BT-549 breast
COLO 205 colon = system: COLO 205 colon
HCT-15 colon = system: HCT-15 colon
HOP-92 NSCLC = system: HOP-92 NSCLC
HS 578T breast = system: HS 578T breast
HT29 colon = system: HT29 colon
IGROV1 ovarian = system: IGROV1 ovarian
MCF7 breast = system: MCF7 breast
MDA-MB-435 = system: MDA-MB-435
MOLT-4 leukemia = system: MOLT-4 leukemia
OVCAR-4 ovarian = system: OVCAR-4 ovarian
SF-268 CNS = system: SF-268 CNS
SK-MEL-5 melanoma = system: SK-MEL-5 melanoma
SK-OV-3 ovarian = system: SK-OV-3 ovarian
SR leukemia = system: SR leukemia
TK-10 renal = system: TK-10 renal

Row | Structure (SMILES) | TGI (ACHN renal) [µM] | TGI (BT-549 breast) [µM] | TGI (COLO 205 colon) [µM] | TGI (HCT-15 colon) [µM] | TGI (HOP-92 NSCLC) [µM] | TGI (HS 578T breast) [µM] | TGI (HT29 colon) [µM] | TGI (IGROV1 ovarian) [µM] | TGI (MCF7 breast) [µM] | TGI (MDA-MB-435) [µM] | TGI (MOLT-4 leukemia) [µM] | TGI (OVCAR-4 ovarian) [µM] | TGI (SF-268 CNS) [µM] | TGI (SK-MEL-5 melanoma) [µM] | TGI (SK-OV-3 ovarian) [µM] | TGI (SR leukemia) [µM] | TGI (TK-10 renal) [µM]
1 | C=C1CC[C@@]2(OC1)OC1C[C@H]3[C@@H]4CC=C5C[C@@H](O)CC(OC6OCC(OC(=O)[C@@H](O)[C@@H](C)CC)C(OC(C)=O)C6OC6OC(C)C(O)C(O)C6O)[C@]5(C)[C@H]4CC[C@]3(C)C1[C@@H]2C (stereo not given in full) | 5.93 | > 10 | 4.5 | 3.67 | > 10 | > 10 | > 10 | 7.79 | 3.23 | 3.38 | 3.54 | > 10 | 4.12 | 3.59 | 3.57 | 4.4 | 3.87
2 | O=C(Nc1ccc2nc(-c3ccccc3)cn2c1)Oc1ccccc1 | > 100 | > 100 | > 100 | > 100 | > 100 | > 100 | > 100 | > 100 | > 100 | 47.5 | > 100 | > 100 | > 100 | > 100 | > 100 | > 100 | > 100
3 | CCC1c2[nH]c3ccccc3c2C[C@H]2C(=O)NC(CCC(=O)OC(C)(C)C)C(=O)N12 (stereo not given in full) | > 100 | > 100 | 72.3 | > 100 | 94.9 | > 100 | > 100 | > 100 | > 100 | > 100 | > 100 | > 100 | > 100 | > 100 | > 100 | > 100 | > 100
4 | COC(=O)CCC(=O)NC1c2cccc3cccc(c23)Cn2c(=O)n(C)c(=O)n21 (stereo not given) | > 100 | > 100 | > 100 | > 100 | > 100 | > 100 | > 100 | > 100 | > 100 | > 100 | > 100 | > 100 | > 100 | > 100 | > 100 | > 100 | > 100
5 | COc1ccccc1N1C(=O)/C(=C\c2cccc(Oc3ccccc3)c2)SC1c1ccccc1 (stereo not given) | > 100 | > 100 | 55 | > 100 | > 100 | > 100 | > 100 | > 100 | > 100 | > 100 | > 100 | > 100 | > 100 | 32.8 | > 100 | > 100 | > 100
6 | Cc1cccc2c(N)c3cccc(C(=O)NCCCNCCN)c3nc12 | 32.8 | 28 | 20.1 | > 100 | 42.7 | 3.71 | 16.3 | 28.9 | 11 | 29.1 | 17.4 | 10.5 | 3.19 | 22.8 | > 62.8 | > 82.9 | 51.7
7 | COC1(OC)C2(Cl)CCC1(Cl)C(OC(C)=O)C2 (stereo not given) | > 100 | > 100 | > 100 | > 100 | > 100 | > 100 | > 100 | > 100 | > 100 | > 100 | > 100 | > 100 | > 100 | > 100 | > 100 | > 100 | > 100
8 | O=C(CNc1ccc(Cl)cc1)Nn1c(-c2ccccc2)nc2ccccc2c1=O | 22.3 | 6.29 | 18.6 | 18.9 | 13.4 | 67 | 21.1 | 15.7 | 8.06 | 23.2 | 16.2 | 27 | 26.9 | 7.09 | 27.8 | > 52.1 | 30.5
9 | CC[C@@H]1/C=C/C=C/C[C@H](C)[C@@H](O)[C@](C)(O)C(=O)[C@H](C)[C@@H](O)[C@H](C)C(=O)[C@H](C)[C@@H](O)[C@H](C)/C=C/C(=O)O[C@H]2[C@@H](C)[C@@H](CC1)O[C@]1(O[C@H](CC(C)O)[C@H](C)CC1=O)[C@@H]2C (stereo not given in full) | 9.19 | 10.9 | 5.07 | > 21.2 | 9.98 | > 18.5 | 8.78 | 16.4 | 4.7 | 10.6 | 11.3 | > 19.7 | 7.93 | 3.53 | > 19.2 | 12.8 | 17.9
10 | CCCN(CCCCC(NC(C)=O)C(=O)NCc1ccccc1)C(=O)N(CCCl)N=O (stereo not given) | > 100 | > 100 | > 100 | > 100 | > 100 | > 100 | > 100 | > 100 | > 100 | > 100 | > 100 | > 100 | > 100 | > 100 | > 100 | > 100 | > 100
